Structures are written as SMILES. Values after ≈ are worked out from the molar mass of the structure shown. Read-outs that look alike come from different tables or passages of the source.

For data set [1] the following is noted: cited from earlier work.
The next data set has as its target T1, MDR1 transporters (Homo sapiens, UniProt P08183).
T1 construct: overexpressed MDR1, MRP1 and BCRP membrane pumps on Caco-2 cells; endogenous in cells; host or cells: Caco-2 cells
Description: P-gp efflux assay (multidrug resistance direct dye efflux kit), Rhodamine-123 dye. In kind it is cell-based. Conditions: experimental, Caco-2 cells. The protocol:
Furthermore, the multidrug resistance directs dye efflux assay kit (Chemicon® International, CA, USA and Serologicals® Corporations, GA, USA) was employed, in which the Caco-2 cells were loaded with rhodamine 123 (Rh-123) and diethyloxacarbocyanine (DiOC2) dyes in the presence or absence of vinblastine. In order to access the functional activity of the inhibition of overexpressed MDR1, MRP1 and BCRP membrane pumps on Caco-2 cells in the presence of Mgf, the fluorescence intensity was measured in a Tecan fluorescence microplate reader (Tecan Ltd, Männedorf, Switzerland) at an excitation wavelength of 485 nm and an emission wavelength of 530 nm. For the purpose, Caco-2 cells in the concentration of 2.5 × 10^5 were incubated with Rh-123 alone and with vinblastine, and Rh-123-loaded Mgf at 37°C to access the inhibitory activity of Mgf on MDR1 transporters. Likewise, to estimate the ability of Mgf to act as a substrate for BCRP transportors, DiOC2 dye was employed. On the similar heels, Caco-2 cells (2.5 × 10^5) were incubated with DiOC2 alone and with vinblastine, and DiOC2-loaded Mgf at 37°C.

A short description of data set [2]: Partition coefficient (log P), shake-flask octanol/water. In kind it is physicochemical. As to conditions: experimental, 25.0 ± 0.1°C. How it is done: Lipophilicity is a molecular property of any compound that is vital to discern the extent of distribution in the body. The logarithm of octanol/water partition coefficient, in other words, log P, is the most extensively used parameter to quantify lipophilicity. The value of log P is a valuable predictor to determine the passive transport of drugs through the lipoid membranes of the human body. […] For this, first presaturation of the solvents (octanol and water) was conducted for 24 h. Then, Mgf in a concentration of 5 mg/100 ml was added to the equilibrated mixture. After separation of the equilibrated phases by centrifugation at 10,000 r.p.m. for 5 min, the concentration of the solute was determined in the aqueous phase using HPTLC at a λmax 262 nm for each sample:Equation 1 [drawing 2]

Data set [3] is described as follows: Equilibrium solubility studies (shaker, HPTLC). In kind it is physicochemical. Conditions: experimental, at 25°C, mean of three. How it is done:
Equilibrium solubility is the most vital physicochemical property that reflects the bioavailability of a compound. […] The equilibrated samples were centrifuged at 5000 r.p.m. (1398 × g) for 10 min to remove any undissolved drug and the supernatant was analyzed using HPTLC at a λmax of 262 nm. All the media were prepared according to the composition reported by Dressman and co-workers.

The conditions of data set [4]: cited from earlier work. This is another data set of the same source.
Data set [5] in a line: In situ single pass intestinal perfusion studies. In kind it is in vivo, Wistar rats. As to conditions: both sexes, Wistar, other: in situ single pass perfusion of the jejunum; experimental, rat jejunum, perfusion rate 0.2 ml/min. The protocol:
The in situ single pass intestinal perfusion studies were performed in a manner reported previously by our group in the past. Three unisex Wistar rats (250–280 g) were fasted for at least 24 h prior to the study, while water was provided ad libitum. The animals were procured from University Centre Animal House, after obtaining the requisite approval from Animals Institutional Committee, Chandigarh (PU/IAEC/S/14/104). Anesthesia was induced by an intraperitoneal injection of thiopental sodium in the dose of 50 mg/kg of the body weight of the rats. After making an incision in the abdomen, provisions for inlet and outlet were made at proximal part of the jejunum, 2–4 cm below the ligament of Trietz and about 10 cm distal to the first incision. […] Finally, 1.5 ml of perfusate was added to the ethereal extract and the concentration of Mgf in the mixture was determined using HPTLC technique at 254 nm by applying the principles of Analytical Quality by Design. The value of effective permeability (Peff) was subsequently calculated using Equation 3 [31].Equation 3 [drawing 4]
where Q is the flow rate, Cin and Cout are the respective inlet and outlet concentrations, r is the radius of the intestine and l is the length of the intestine measured after completion of perfusion.

Data set [6] in a line: Determination of log D, aqueous phase pH 7.4. In kind it is physicochemical. Conditions: octanol / physiological buffer (aqueous phase at pH 7.4), experimental. The text has this:
Log D, the logarithm of distribution constant or apparent partition, therefore, is a better descriptor of the lipophilicity of an ionizable compound that is likely to be charged at the physiological pH [26]. This can be determined in a similar manner to log P, but the aqueous phase, instead of being pure water, is adjusted to pH 7.4 using a physiological buffer:Equation 2 [drawing 3]

The conditions of data set [7]: at 45°C; cited from earlier work.
The next data set has as its system P-gp. Conditions: cited from earlier work.

T1 sequence (P08183 whole entry): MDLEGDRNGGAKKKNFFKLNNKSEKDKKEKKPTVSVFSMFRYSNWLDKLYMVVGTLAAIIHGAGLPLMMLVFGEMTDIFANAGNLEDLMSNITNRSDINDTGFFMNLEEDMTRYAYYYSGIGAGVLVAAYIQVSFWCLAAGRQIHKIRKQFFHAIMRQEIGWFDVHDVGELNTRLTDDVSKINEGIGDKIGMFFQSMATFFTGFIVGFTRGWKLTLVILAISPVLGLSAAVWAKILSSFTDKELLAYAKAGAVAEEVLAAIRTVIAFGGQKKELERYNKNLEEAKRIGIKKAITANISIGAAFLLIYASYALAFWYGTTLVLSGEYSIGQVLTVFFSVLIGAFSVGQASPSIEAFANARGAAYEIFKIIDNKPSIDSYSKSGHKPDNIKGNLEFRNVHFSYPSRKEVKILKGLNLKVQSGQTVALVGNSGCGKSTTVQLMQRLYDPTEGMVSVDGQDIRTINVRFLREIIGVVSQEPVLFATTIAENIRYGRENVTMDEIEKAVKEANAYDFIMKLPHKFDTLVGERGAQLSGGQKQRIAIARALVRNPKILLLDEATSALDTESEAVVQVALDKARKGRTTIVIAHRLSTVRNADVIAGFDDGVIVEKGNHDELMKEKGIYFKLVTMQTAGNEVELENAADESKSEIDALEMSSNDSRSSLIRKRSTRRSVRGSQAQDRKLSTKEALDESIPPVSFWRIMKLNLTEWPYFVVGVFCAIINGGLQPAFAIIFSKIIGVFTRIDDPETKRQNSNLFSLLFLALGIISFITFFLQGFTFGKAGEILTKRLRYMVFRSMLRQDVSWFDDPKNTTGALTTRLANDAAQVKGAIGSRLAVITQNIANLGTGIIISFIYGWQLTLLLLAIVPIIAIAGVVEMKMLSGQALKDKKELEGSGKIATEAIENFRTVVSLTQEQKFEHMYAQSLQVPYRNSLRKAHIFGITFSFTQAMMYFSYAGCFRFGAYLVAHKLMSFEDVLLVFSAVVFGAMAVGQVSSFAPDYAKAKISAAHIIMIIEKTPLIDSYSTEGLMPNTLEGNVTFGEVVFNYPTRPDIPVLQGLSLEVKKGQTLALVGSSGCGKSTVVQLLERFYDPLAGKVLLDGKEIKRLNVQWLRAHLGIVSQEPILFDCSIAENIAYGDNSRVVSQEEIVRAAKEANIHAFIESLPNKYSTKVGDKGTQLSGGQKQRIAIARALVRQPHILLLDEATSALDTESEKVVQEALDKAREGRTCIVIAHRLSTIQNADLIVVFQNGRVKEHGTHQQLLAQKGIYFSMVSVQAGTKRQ

For the compound `O=c1c2cc(O)c(O)cc2oc2cc(O)c([C@@H]3O[C@H](CO)[C@@H](O)[C@H](O)[C@H]3O)c(O)c12` [mangiferin, (1S)-1,5-Anhydro-1-(1,3,6,7-tetrahydroxy-9-oxo-9H-xanthen-2-yl)-D-glucitol], in [1] (plasma), the “AUC0–t rise in streptozotocin-induced diabetic rats compared with normal rats” value is 2.35 fold. Besides, in [1] (plasma), the “Cmax rise in streptozotocin-induced diabetic rats compared with normal rats” value is recorded as 2.79 fold. Further, the Maximum plasma levels in [1] (rats, oral) is 715.04 ± 600.14 ng/mL. Besides, the “Time of maximum plasma levels after oral intake” value in data set [1] (rats, oral) is 0.72 h. The P-gp substrate entry at MDR1 transporters and in the data set with P-gp was “Yes” throughout. The logP in data set [2] is -0.65. Moreover, the solubility at 72 h in [3] (fasted-state simulated gastric fluid, read-out: Solubility in fasted-state simulated gastric fluid) was 140 µg/mL (≈ 331 µM); in data set [3] (fasted-state simulated intestinal fluid, fassif, thermodynamic from solid, read-out: Solubility in fasted-state simulated intestinal fluid), 1480 µg/mL (≈ 3500 µM); in [3] (fed-state simulated intestinal fluid, fessif, thermodynamic from solid, read-out: Solubility in fed-state simulated intestinal fluid), 3980 µg/mL (≈ 9420 µM); in data set [3] (thermodynamic from solid, water, read-out: Aqueous solubility), 380 µg/mL (≈ 900 µM). For the same compound, the “log P” value in data set [4] is reported as -0.09 to -0.36. This compound also registered an effective permeability (Peff) in data set [5] of 16 ×10⁻⁶ cm/s. In data set [6], the logD was -0.79. Further, the Aqueous solubility in data set [7] is 0.25 mg/ml at 45 °C.

The record behind these values is article PMC5351510 (Future Science OA, 2017).
